Our source for the IC50 and GI50 values is patent publication US20230212171A1, “ALLOSTERIC EGFR INHIBITORS AND METHODS OF USE THEREOF” (Dana-Farber Cancer Institute, Inc., priority 2020, published 2023).

For one assay, the target named is EGFR L858R (Homo sapiens, UniProt P00533, L858R). As to the kind of experiment: HTRF-based EGFR biochemical assay (L858R). The conditions noted are these: enzyme 0.1 nM, ATP 100 µM, 30 min preincubation. The protocol: (§1) EGFR biochemical activity measurements were carried out using the homogeneous time-resolved fluorescence (HTRF) assay (Cisbio). Inhibitors and DMSO normalizations were first dispensed to empty black low-volume 384-well plates (Corning) with D300 digital liquid dispenser (HP). All reactions were carried out at room temperature and solutions were added to plates with a Multidrop Combi Reagent Dispenser (ThermoFisher). The reaction mixture (10 µL final volume) contained 1 µM tyrosine kinase peptide-biotin substrate and mutant EGFR in a reaction buffer (50 mM HEPES pH 7.0, 5 mM MgCl2, 1 mM MnCl2, 0.01% BSA, 2 mM TCEP, 0.1 mM NaVO4). Enzyme concentrations were adjusted to accommodate varying kinase activities (L858R 0.1 nM, L858R/T790M 0.02 nM). Enzyme reaction solution (2× concentrations, 5 µL) was added to 384-well plates containing compounds and incubated for 30 mins. Enzyme reactions were initiated with the addition of 5 µL of ATP to a final concentration of 100 µM and reacted for 20 mins. Reactions were quenched with the addition of 10 µL of phospho-tyrosine antibody-Europium(III) cryptate (1-to-180 volume ratio) and Streptavidin-XL665 (46.7 nM) in EDTA-containing detection buffer, then incubated at room temperature for 1 hour, and read with a PHERAstar plate reader (excitation = 337 nm, emission = 620 nm and 665 nm). IC50 values were determined by inhibition curves (11-point curves from 1.0 µM to 0.130 nM or 23-point curves from 1.0 µM to 0.130 pM) in triplicate with non-linear least squares fit in GraphPad Prism 7.0d.
Sequence of EGFR L858R (P00533 25-1210 L858R): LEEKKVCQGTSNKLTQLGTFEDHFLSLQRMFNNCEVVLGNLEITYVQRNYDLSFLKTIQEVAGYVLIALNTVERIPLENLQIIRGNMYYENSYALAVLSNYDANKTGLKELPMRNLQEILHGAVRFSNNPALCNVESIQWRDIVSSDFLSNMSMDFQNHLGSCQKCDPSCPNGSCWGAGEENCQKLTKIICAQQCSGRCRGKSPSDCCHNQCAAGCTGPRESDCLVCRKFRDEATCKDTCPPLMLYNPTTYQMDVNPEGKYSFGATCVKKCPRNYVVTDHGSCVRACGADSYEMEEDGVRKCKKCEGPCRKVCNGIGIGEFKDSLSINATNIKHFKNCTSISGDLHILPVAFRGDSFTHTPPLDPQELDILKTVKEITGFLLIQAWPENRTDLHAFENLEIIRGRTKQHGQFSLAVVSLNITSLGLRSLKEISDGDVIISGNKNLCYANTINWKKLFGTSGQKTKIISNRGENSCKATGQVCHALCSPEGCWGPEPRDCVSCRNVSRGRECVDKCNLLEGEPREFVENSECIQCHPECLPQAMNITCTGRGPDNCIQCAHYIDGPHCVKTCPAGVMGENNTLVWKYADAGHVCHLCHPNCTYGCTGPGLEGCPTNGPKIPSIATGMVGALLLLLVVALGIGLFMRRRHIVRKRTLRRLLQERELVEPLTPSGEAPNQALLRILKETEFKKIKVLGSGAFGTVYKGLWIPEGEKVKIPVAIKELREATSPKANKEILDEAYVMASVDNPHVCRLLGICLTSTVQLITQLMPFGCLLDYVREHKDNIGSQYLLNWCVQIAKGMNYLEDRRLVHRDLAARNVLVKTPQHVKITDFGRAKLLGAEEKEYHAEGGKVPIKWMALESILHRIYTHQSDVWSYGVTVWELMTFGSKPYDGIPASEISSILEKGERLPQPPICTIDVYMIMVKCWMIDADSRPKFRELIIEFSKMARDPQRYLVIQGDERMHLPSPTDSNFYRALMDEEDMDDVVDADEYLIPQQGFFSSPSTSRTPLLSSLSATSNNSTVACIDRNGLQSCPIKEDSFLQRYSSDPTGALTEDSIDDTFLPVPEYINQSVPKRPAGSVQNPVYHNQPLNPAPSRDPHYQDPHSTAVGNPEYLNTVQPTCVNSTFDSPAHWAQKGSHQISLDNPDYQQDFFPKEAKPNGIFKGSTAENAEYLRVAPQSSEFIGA
For orientation: TR-FRET usually uses a lanthanide donor and a delayed reading to cut background.

The target of assay [1] is EGFR mutant L858R/T790M Ba/F3 cells (Homo sapiens, UniProt P00533, T790M/L858R, cells depend on it). The assay can be described thus: Ba/F3 cell proliferation model (Cell Titer Glo), EGFR L858R/T790M. The settings on record: single agent, 72 hours; read-out: Cell IC50 BaF3 EGFR L858R/T790M. Type of assay: cell-based, murine. The text has this:
(§2) The EGFR mutant L858R and L858R/T790M Ba/F3 cells have been previously described (Zhou, W., et al. Nature 462, 2009, 1070-1074). All cell lines were maintained in RPMI 1640 (Cellgro; Mediatech Inc., Herndon, CA) supplemented with 10% FBS, 100 units/mL penicillin, 100 units/mL streptomycin. The EGFR I941R mutation was introduced via site directed mutagenesis using the Quick Change Site-Directed Mutagenesis kit (Stratagene; La Jolla, CA) according to the manufacturer’s instructions. All constructs were confirmed by DNA sequencing. The constructs were shuttled into the retroviral vector JP1540 using the Cre-recombination system (Agilent Technologies, Santa Clara, CA). Ba/F3 cells were then infected with retrovirus per standard protocols, as described previously (Zhou, et al, Nature 2009). Stable clones were obtained by selection in puromycin (2 µg/ml).
(§3) Growth and inhibition of growth was assessed by the Cell Titer Glo assay (Promega, Madison, WI) and was performed according to the manufacturer’s instructions. The Cell Titer Glo assay is a luminescence-based method used to determine the number of viable cells based on quantitation of the ATP present, which is directly proportional to the amount of metabolically active cells present. Ba/F3 cells of different EGFR genotypes were exposed to compounds as a single agent or in combination with 1 µg/mL cetuximab for 72 hours and the number of cells used per experiment was determined empirically as has been previously established (Zhou, et al., Nature 2009). All experimental points were set up in triplicates in 384-well plates and all experiments were repeated at least three times. […] The curves were fitted using a non-linear regression model with a sigmoidal dose response.
For orientation: ATP-based viability assays read luminescence as a measure of living cells.

The target in assay [2] is EGFR mutant L858R Ba/F3 cells (Homo sapiens, UniProt P00533, L858R, cells depend on it). As to the kind of experiment: Ba/F3 cell proliferation model (Cell Titer Glo), EGFR L858R. The conditions noted are these: single agent, 72 hours; read-out: Cell ICso BaF3 EGFR L858R. Type of assay: cell-based, murine.
Sequence of EGFR mutant L858R Ba/F3 cells (P00533 whole entry L858R): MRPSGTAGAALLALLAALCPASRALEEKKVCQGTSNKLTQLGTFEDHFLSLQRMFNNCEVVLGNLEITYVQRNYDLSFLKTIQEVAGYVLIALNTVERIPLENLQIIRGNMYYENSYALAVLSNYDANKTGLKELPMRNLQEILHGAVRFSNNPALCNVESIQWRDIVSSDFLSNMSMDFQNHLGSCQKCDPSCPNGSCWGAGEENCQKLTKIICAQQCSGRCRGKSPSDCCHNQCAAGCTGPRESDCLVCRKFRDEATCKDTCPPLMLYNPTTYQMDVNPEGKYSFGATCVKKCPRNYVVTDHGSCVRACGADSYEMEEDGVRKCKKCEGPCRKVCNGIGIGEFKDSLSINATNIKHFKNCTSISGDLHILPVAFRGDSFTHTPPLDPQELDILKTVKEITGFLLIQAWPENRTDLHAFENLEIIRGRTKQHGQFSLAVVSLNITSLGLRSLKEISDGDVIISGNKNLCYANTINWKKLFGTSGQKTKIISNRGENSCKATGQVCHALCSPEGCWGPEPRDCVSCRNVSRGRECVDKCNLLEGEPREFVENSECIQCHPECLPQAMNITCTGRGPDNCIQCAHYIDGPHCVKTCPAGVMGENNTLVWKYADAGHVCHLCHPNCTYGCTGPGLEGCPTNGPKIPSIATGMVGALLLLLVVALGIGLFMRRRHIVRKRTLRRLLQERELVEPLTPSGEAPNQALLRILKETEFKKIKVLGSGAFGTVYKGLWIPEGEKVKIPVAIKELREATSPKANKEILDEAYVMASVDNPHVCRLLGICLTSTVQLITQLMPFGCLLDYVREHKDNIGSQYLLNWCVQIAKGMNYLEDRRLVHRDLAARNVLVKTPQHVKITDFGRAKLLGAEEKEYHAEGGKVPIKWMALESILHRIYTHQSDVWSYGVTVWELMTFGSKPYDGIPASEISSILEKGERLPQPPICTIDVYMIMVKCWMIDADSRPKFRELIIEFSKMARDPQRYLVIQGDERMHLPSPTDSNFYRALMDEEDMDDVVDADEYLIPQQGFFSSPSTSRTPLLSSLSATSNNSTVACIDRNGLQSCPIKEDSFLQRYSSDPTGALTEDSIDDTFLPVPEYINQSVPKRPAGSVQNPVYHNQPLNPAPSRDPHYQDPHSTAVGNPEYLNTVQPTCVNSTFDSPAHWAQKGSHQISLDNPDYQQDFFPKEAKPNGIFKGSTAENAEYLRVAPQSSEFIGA
Excerpt: as §2, §3

For a further assay, the target named is EGFR L858R/T790M (Homo sapiens, UniProt P00533, L858R/T790M). The assay can be described thus: HTRF-based EGFR biochemical assay (L858R/T790M). The conditions noted are these: enzyme 0.02 nM, ATP 100 µM, 30 min preincubation. The protocol:
as §1

Sequence of EGFR mutant L858R/T790M Ba/F3 cells (P00533 whole entry T790M/L858R): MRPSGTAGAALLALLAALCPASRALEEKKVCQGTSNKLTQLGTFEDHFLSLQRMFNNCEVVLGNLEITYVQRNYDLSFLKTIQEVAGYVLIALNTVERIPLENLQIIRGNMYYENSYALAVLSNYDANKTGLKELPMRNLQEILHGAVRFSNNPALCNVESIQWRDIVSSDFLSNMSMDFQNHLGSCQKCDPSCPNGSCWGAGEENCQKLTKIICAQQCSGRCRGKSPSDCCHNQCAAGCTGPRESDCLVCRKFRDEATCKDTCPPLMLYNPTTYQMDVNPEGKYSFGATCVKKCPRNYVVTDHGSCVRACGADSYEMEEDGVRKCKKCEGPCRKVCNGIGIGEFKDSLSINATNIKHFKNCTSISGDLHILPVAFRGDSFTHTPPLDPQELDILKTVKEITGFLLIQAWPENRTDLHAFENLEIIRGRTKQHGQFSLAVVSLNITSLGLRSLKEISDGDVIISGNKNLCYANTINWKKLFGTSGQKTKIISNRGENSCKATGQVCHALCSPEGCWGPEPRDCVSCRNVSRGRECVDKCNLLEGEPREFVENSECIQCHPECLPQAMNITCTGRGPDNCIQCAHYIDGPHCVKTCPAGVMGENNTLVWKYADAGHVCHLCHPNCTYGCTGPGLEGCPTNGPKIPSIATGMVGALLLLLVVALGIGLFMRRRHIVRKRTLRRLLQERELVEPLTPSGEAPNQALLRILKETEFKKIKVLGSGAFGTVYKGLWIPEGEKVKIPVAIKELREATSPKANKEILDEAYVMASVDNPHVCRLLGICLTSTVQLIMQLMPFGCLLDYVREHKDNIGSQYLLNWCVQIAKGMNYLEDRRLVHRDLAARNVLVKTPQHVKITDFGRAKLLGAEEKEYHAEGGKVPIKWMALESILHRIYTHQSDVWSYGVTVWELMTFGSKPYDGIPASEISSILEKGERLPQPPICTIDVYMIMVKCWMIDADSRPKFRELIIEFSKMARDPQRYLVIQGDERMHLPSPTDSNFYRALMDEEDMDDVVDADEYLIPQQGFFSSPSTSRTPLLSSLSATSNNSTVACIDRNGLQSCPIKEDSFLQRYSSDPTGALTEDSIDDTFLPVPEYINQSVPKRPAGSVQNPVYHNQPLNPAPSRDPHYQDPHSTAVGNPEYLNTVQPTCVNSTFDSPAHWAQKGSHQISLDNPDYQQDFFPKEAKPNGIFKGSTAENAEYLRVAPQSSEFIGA
Sequence of EGFR L858R/T790M (P00533 25-1210 T790M/L858R): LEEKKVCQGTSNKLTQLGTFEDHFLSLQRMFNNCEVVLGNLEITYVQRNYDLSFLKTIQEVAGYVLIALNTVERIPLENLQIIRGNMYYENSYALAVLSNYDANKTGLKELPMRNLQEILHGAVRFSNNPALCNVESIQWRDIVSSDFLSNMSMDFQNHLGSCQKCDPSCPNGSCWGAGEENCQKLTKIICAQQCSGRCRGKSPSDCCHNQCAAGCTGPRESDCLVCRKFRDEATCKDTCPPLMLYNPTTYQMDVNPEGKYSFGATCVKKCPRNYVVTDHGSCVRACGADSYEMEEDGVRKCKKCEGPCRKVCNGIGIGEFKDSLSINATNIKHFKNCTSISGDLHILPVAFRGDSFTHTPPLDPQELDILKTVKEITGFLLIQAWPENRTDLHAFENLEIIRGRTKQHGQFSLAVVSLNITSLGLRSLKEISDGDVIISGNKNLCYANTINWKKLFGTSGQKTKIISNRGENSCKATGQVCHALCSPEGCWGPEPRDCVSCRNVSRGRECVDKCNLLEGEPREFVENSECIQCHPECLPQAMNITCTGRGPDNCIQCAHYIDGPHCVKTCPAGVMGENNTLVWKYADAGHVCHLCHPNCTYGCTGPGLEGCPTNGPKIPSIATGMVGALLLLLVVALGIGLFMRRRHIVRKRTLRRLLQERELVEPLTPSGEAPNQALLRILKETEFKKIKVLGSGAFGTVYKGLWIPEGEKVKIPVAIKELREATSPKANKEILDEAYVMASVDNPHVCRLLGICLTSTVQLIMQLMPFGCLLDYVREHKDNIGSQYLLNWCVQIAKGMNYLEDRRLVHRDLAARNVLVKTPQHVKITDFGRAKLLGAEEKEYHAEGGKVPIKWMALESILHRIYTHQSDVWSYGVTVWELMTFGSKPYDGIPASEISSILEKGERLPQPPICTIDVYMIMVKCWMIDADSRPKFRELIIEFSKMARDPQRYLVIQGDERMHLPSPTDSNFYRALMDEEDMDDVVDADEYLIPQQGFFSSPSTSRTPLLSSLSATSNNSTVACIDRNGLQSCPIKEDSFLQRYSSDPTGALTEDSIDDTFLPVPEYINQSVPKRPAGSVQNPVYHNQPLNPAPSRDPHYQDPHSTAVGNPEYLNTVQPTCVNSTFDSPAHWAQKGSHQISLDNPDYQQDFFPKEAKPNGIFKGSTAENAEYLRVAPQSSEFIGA

What is called IC50 is the concentration needed to halve the response being measured. High values mean weaker potency in that assay, low ones greater potency in that assay. With `CN1CCC(c2ccc(-c3ccc4c(c3)CC(=O)N(C(c3nc5ccccc5[nH]3)c3cc(F)ccc3O)C4)cc2)CC1` (stereo not shown) [Compound 018, 2-[1H-benzimidazol-2-yl-(5-fluoro-2-hydroxy-phenyl)methyl]-6-[4-(1-methyl-4-piperidyl)phenyl]-1,4-dihydroisoquinolin-3-one], the results for the IC50 on EGFR L858R and against EGFR L858R/T790M were 6 nM and 8 nM, respectively. For the same compound, the GI50 in assay [1] was determined as 480 nM; in assay [2], 530 nM.
